How the values were obtained:
Experiment in all cases: KINOMEscan Max
Assay type in all cases: binding
[1] = biological target: ABL1(E255K)-phosphorylated) (Homo sapiens, UniProt P00519, E255K)
Procedure, shortened: (§1)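 Steps: mix DNA-tagged kinase, immobilized active-site ligand and compound; let compound compete with ligand for the kinase; quantify the kinase retained by qPCR on its DNA tag.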

[2] = biological target: T1, ABL1(F317I)-nonphosphorylated (Homo sapiens, UniProt P00519, F317I)
T1 construct: purchased Ambit (KINOMEscan Max service)
Procedure, shortened: as §1

[3] = biological target: ABL1(M351T)-phosphorylated (Homo sapiens, UniProt P00519, M351T)
Procedure, shortened: as §1

[4] = biological target: ABL1(Q252H)-phosphorylated (Homo sapiens, UniProt P00519, Q252H)
Procedure, shortened: as §1

[5] = biological target: ABL1(T315I)-nonphosphorylated (Homo sapiens, UniProt P00519, T315I)
Procedure, shortened: as §1

[6] = biological target: ABL1(Y253F)-phosphorylated (Homo sapiens, UniProt P00519, Y253F)
Procedure, shortened: as §1

ACVR2A = biological target: T2, ACVR2A (Homo sapiens, UniProt P27037)
T2 construct: DNA tag (qPCR label); purchased Ambit Kinomescan (contract screening)
Procedure, shortened: as §1

BMPR1B = biological target: T3, BMPR1B (Homo sapiens, UniProt O00238)
T3 construct: DNA tag (qPCR label); purchased Ambit Kinomescan (contract screening)
Procedure, shortened: as §1

CAMKK2 = biological target: T4, CAMKK2 (Homo sapiens, UniProt Q96RR4)
T4 construct: DNA tag (qPCR label); purchased Ambit Kinomescan (contract screening)
Procedure, shortened: as §1

DCAMKL1 = DCAMKL1 (Homo sapiens, UniProt O15075); details: 1 μM
Procedure, shortened: as §1

DMPK = biological target: T5, DMPK (Homo sapiens, UniProt Q09013)
T5 construct: purchased Ambit (KINOMEscan Max panel service)
Procedure, shortened: as §1

EGFR = biological target: T6, EGFR (Homo sapiens, UniProt P00533); details: 1 μM
T6 construct: purchased Ambit (KINOMEscan Max panel service)
Procedure, shortened: as §1

EGFR(G719C) = biological target: T7, EGFR(G719C) (Homo sapiens, UniProt P00533, G719C); details: 1 μM
T7 construct: purchased Ambit (KINOMEscan Max panel service)
Procedure, shortened: as §1

EPHA3 = biological target: T8, EPHA3 (Homo sapiens, UniProt P29320)
T8 construct: DNA tag (qPCR read-out)
Procedure, shortened: as §1

HIPK3 = biological target: T9, HIPK3 (Homo sapiens, UniProt Q9H422)
T9 construct: DNA tag (qPCR read-out); purchased Ambit Kinomescan
Procedure, shortened: as §1

ITK = biological target: T10, ITK (Homo sapiens, UniProt Q08881); details: 1 μM
T10 construct: purchased Ambit Kinomescan (contract panel)
Procedure, shortened: as §1

[7] = biological target: T11, JAK1(JH2domain-pseudokinase) (Homo sapiens, UniProt P23458); details: 1 μM
T11 construct: JAK1(JH2domain-pseudokinase)
Procedure, shortened: as §1

JNK3 = biological target: T12, JNK3 (Homo sapiens, UniProt P53779); details: 1 μM
T12 construct: purchased Ambit Kinomescan (contract panel)
Procedure, shortened: as §1

MAP4K5 = MAP4K5 (Homo sapiens, UniProt Q9Y4K4)
Procedure, shortened: as §1

MLCK = MLCK (Homo sapiens, UniProt Q32MK0)
Procedure, shortened: as §1

MST3 = MST3 (Homo sapiens, UniProt Q9Y6E0); details: 1 μM
Procedure, shortened: as §1

NEK11 = biological target: T13, NEK11 (Homo sapiens, UniProt Q8NG66)
T13 construct: DNA tag (qPCR read-out)
Procedure, shortened: as §1

PIK3CA(E545A) = biological target: T14, PIK3CA(E545A) (Homo sapiens, UniProt P42336, E545A)
T14 construct: purchased Ambit Kinomescan (contract screening)
Procedure, shortened: as §1

PIK3CA(H1047Y) = biological target: T15, PIK3CA(H1047Y) (Homo sapiens, UniProt P42336, H1047Y)
T15 construct: DNA tag (qPCR read-out)
Procedure, shortened: as §1

PIP5K2C = biological target: T16, PIP5K2C (Homo sapiens, UniProt Q8TBX8)
T16 construct: DNA tag (qPCR read-out)
Procedure, shortened: as §1

PKAC-alpha = biological target: T17, PKAC-alpha (Homo sapiens, UniProt P17612)
T17 construct: purchased Ambit (KINOMEscan Max service)
Procedure, shortened: as §1

PKNB(M.tuberculosis) = PKNB(M.tuberculosis) (Mycobacterium tuberculosis, UniProt P9WI81)
ROCK1 = biological target: T18, ROCK1 (Homo sapiens, UniProt Q13464)
T18 construct: DNA tag (qPCR read-out)
Procedure, shortened: as §1

[8] = biological target: T19, RPS6KA4(Kin.Dom.2-C-terminal) (Homo sapiens, UniProt O75676)
T19 construct: RPS6KA4(Kin.Dom.2-C-terminal); purchased Ambit Kinomescan (contract screening)
Procedure, shortened: as §1

TBK1 = TBK1 (Homo sapiens, UniProt Q9UHD2)
Procedure, shortened: as §1

TIE1 = biological target: T20, TIE1 (Homo sapiens, UniProt P35590)
T20 construct: purchased Ambit Kinomescan (contract screening service)
Procedure, shortened: as §1

[9] = biological target: T21, TYK2(JH2domain-pseudokinase) (Homo sapiens, UniProt P29597); details: 1 μM
T21 construct: TYK2(JH2domain-pseudokinase); purchased Ambit Kinomescan (contract screening service)
Procedure, shortened: as §1

T5 sequence (Q09013 whole entry): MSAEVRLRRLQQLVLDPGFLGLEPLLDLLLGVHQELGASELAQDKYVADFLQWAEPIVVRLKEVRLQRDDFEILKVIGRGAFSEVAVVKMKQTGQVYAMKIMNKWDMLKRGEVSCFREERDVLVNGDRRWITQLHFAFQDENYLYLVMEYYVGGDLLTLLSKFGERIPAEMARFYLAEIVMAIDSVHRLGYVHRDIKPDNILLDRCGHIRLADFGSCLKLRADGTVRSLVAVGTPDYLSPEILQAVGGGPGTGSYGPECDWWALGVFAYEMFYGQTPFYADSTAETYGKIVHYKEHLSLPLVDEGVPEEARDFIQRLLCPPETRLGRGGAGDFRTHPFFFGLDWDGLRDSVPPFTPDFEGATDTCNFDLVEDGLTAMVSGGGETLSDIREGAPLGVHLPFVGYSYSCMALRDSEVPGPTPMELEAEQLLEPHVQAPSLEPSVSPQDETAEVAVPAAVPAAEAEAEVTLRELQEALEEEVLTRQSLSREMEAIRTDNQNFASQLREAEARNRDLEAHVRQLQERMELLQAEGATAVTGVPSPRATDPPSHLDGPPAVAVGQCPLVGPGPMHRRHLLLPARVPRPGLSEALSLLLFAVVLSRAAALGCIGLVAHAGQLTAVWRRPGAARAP
T18 sequence (Q13464 whole entry): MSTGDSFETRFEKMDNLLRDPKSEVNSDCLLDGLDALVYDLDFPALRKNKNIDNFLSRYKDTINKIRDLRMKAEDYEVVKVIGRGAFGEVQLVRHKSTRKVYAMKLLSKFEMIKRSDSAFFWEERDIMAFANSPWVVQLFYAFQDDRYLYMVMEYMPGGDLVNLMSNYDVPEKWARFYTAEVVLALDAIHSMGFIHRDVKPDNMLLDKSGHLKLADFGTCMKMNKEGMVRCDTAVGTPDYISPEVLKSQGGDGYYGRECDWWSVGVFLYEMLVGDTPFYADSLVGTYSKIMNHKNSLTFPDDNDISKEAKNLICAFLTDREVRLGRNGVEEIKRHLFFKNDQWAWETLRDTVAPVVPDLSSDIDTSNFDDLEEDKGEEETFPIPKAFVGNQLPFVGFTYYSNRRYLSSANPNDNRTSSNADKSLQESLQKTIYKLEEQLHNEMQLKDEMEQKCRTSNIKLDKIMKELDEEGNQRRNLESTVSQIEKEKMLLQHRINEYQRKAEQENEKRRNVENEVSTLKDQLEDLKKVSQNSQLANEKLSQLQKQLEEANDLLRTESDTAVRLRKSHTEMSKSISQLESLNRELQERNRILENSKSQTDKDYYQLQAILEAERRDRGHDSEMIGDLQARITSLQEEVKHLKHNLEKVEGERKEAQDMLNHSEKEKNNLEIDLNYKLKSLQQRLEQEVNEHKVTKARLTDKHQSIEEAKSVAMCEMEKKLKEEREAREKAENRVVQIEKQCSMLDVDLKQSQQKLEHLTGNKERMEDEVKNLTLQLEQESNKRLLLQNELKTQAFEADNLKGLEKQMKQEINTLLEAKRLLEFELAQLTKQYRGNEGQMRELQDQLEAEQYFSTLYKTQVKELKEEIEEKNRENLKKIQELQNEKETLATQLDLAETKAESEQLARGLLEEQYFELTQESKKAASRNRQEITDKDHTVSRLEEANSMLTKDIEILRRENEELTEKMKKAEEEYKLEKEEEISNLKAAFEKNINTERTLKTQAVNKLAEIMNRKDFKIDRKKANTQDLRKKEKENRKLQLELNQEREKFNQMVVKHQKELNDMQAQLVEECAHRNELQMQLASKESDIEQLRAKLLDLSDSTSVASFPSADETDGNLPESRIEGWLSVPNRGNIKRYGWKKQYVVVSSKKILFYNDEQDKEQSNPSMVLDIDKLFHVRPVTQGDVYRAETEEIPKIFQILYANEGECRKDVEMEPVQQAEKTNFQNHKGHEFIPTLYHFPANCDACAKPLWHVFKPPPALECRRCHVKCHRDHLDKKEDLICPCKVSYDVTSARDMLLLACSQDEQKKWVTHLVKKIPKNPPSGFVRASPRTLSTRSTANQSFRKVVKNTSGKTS
T11 sequence (P23458 583-855 limits assumed): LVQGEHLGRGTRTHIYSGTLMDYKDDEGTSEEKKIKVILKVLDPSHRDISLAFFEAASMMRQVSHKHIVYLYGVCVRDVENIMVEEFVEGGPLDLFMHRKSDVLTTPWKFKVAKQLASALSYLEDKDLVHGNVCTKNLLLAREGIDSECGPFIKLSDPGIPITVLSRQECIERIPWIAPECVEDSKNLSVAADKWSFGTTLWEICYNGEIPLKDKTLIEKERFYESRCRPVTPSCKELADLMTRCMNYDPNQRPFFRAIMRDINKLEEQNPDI
MAP4K5, sequence (Q9Y4K4 whole entry): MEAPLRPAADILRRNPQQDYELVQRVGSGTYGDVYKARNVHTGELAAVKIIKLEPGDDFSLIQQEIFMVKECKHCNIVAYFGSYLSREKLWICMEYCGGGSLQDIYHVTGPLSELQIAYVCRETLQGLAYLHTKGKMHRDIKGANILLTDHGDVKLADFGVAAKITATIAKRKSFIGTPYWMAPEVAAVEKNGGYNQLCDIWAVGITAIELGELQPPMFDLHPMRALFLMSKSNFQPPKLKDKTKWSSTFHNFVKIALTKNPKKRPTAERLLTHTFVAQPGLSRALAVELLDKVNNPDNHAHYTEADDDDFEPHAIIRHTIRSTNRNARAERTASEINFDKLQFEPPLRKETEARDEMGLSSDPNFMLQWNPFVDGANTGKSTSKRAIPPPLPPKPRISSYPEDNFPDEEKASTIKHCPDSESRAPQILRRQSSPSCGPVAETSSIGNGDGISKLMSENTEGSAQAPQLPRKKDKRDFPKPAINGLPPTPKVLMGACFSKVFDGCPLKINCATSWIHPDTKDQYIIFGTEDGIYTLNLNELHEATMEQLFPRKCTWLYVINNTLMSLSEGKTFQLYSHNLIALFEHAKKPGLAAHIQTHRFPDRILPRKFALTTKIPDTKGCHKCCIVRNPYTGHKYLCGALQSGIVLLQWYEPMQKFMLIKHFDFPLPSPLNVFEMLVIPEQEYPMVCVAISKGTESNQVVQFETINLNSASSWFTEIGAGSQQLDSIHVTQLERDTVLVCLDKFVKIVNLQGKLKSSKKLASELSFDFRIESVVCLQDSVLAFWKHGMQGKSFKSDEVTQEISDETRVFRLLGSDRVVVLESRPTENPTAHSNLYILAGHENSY
T10 sequence (Q08881 whole entry): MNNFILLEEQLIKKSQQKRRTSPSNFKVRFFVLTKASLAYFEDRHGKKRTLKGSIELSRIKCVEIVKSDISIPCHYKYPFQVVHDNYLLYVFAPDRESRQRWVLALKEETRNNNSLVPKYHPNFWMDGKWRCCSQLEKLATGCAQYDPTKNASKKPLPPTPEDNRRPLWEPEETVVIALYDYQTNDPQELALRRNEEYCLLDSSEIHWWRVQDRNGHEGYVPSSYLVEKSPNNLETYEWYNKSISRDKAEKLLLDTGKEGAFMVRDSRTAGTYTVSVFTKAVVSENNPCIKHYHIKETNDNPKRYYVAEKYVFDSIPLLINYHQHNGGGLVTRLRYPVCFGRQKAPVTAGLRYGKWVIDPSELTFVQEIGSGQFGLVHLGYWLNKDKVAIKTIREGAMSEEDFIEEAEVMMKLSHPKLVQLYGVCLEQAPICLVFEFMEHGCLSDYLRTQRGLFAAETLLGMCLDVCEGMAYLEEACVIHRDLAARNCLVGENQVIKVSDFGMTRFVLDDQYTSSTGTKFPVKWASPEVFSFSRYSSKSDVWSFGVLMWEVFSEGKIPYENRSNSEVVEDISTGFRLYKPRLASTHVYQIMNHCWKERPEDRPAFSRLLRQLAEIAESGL
T13 sequence (Q8NG66 whole entry): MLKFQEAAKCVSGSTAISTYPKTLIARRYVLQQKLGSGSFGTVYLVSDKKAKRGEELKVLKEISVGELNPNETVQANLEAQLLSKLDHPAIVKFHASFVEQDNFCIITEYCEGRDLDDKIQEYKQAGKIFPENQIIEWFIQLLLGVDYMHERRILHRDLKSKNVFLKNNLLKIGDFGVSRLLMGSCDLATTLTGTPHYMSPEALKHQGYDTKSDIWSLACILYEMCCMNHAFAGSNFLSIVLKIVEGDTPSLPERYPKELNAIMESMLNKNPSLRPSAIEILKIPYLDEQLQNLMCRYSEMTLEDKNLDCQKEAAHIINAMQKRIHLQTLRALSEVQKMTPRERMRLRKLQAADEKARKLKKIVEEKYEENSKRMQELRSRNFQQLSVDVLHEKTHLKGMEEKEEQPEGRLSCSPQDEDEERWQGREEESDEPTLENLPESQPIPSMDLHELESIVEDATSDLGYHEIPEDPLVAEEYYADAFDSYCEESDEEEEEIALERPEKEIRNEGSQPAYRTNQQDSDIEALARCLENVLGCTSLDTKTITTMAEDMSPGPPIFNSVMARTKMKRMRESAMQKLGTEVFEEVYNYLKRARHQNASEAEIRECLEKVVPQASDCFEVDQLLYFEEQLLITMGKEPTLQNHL
T12 sequence (P53779 whole entry): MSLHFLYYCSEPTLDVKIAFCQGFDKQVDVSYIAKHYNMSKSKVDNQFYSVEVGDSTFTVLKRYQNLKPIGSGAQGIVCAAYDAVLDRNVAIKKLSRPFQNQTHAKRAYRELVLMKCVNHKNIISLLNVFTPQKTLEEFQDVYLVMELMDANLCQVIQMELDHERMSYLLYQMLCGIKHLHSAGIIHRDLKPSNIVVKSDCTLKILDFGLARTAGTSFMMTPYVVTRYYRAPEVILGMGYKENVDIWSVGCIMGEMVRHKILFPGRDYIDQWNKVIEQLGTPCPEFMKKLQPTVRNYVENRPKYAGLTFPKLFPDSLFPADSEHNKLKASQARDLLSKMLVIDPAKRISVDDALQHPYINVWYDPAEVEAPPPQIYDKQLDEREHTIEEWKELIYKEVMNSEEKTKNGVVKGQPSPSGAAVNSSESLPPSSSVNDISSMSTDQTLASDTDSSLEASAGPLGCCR

Question: With `NCCCNc1nc2c(Br)c(Br)c(Br)c(Br)c2[nH]1` [Compound 11, N-(3-aminopropyl)-4,5,6,7-tetrabromo-1H-benzo[d]imidazol-2-amine] as the compound, how does the remaining binding at 1 µM [1] read?
Answer: 95%

Question: What about the remaining binding at 1 µM [2] of the same compound?
Answer: 64%

Question: And the remaining binding at 1 µM [3]?
Answer: 100%

Question: What about the remaining binding at 1 µM [4] of the same compound?
Answer: 100%

Question: And the remaining binding at 1 µM [5]?
Answer: 100%

Question: What about the remaining binding at 1 µM [6] of the same compound?
Answer: 100%

Question: And the remaining binding at 1 µM (ACVR2A)?
Answer: 100%

Question: What about the remaining binding at 1 µM (BMPR1B) of the same compound?
Answer: 100%

Question: What about the remaining binding at 1 µM (CAMKK2) of the same compound?
Answer: 100%

Question: And the “% binding” value (DCAMKL1)?
Answer: 96%

Question: What about the remaining binding at 1 µM (DMPK) of the same compound?
Answer: 100%

Question: And the “% binding” value (EGFR)?
Answer: 100%

Question: What about the “% binding” value (EGFR(G719C)) of the same compound?
Answer: 100%

Question: What about the remaining binding at 1 µM (EPHA3) of the same compound?
Answer: 89%

Question: And the remaining binding at 1 µM (HIPK3)?
Answer: 1.5%

Question: What about the “% binding” value (ITK) of the same compound?
Answer: 100%

Question: And the “% binding” value [7]?
Answer: 93%

Question: And the “% binding” value (JNK3)?
Answer: 100%

Question: And the remaining binding at 1 µM (MAP4K5)?
Answer: 98%

Question: And the remaining binding at 1 µM (MLCK)?
Answer: 92%

Question: And the “% binding” value (MST3)?
Answer: 98%

Question: What about the remaining binding at 1 µM (NEK11) of the same compound?
Answer: 89%

Question: What about the remaining binding at 1 µM (PIK3CA(E545A)) of the same compound?
Answer: 96%

Question: And the remaining binding at 1 µM (PIK3CA(H1047Y))?
Answer: 100%

Question: What about the remaining binding at 1 µM (PIP5K2C) of the same compound?
Answer: 56%

Question: And the remaining binding at 1 µM (PKAC-alpha)?
Answer: 68%

Question: What about the remaining binding at 1 µM (PKNB(M.tuberculosis)) of the same compound?
Answer: 91%

Question: What about the remaining binding at 1 µM (ROCK1) of the same compound?
Answer: 28%

Question: What about the remaining binding at 1 µM [8] of the same compound?
Answer: 97%

Question: What about the remaining binding at 1 µM (TBK1) of the same compound?
Answer: 76%

Question: And the remaining binding at 1 µM (TIE1)?
Answer: 100%

Question: And the “% binding” value [9]?
Answer: 100%

From patent US20110230481A2, “DERIVATIVES OF TETRABROMOBENZIMIDAZOLE, A PROCESS FOR THE PREPARATION THEREOF, A PHARMACEUTICAL COMPOSITION COMPRISING THE SAME, A METHOD OF USING THE SAME, A METHOD FOR MODULATING OR REGULATING SERINE/THREONINE KINASES, AND SERINE/THREONINE KINASES MODULATING AGENT” (SELVITA S.A., priority 2009, published 2011)
